Results published in patent US5510368A, “N-benzyl-3-indoleacetic acids as antiinflammatory drugs” (priority 1995, dated 1996).
Structures can show the parent of a compound that is named as a salt.

Experiments:
[1] = system: Rat paw edema; experiment: Rat Paw Edema Assay (carrageenan); type: in vivo, Male Sprague-Dawley rats; conditions: po, 1 h before subplantar carrageenan (500 μg per paw); paw volume at 3 h
Experimental: Male Sprague-Dawley rats (150-200 g) were fasted overnight and were given po either vehicle (1% methocel or 5% Tween 80) or a test compound. One hour later, a line was drawn using a permanent marker at the level above the ankle in one hind paw to define the area of the paw to be monitored. The paw volume (VO) was measured using a plethysmometer (Ugo-B asile, Italy) based on the principle of water displacement. The animals were then injected subplantarly with 50 μl of 1% carrageenan solution in saline (FMC Corp, Maine) into the paw using an insulin syringe with a 25-gauge needle (i.e. 500 μg carrageenan per paw). Three hours later, the paw is volume (V3) was measured and the increases in paw volume (V3 -VO) were calculated. The animals were sacrificed by CO2 aphyxiation and the absence or presence of stomach lesions scored. Data were compared with the vehicle-control values and percent inhibition calculated. […] All treatment groups were coded to eliminate observer bias.

[2] = target: cyclooxygenase-1 (Homo sapiens, UniProt P23219); experiment: Inhibition of cyclooxygenase activity, whole cell cyclooxygenase assay (COX-1, U-937 cells, PGE2 by radioimmunoassay); type: cell-based; conditions: human U-937 cells; PGE2 synthesis; 10 μM arachidonic acid
Chain of cyclooxygenase-1 (P23219 24-599): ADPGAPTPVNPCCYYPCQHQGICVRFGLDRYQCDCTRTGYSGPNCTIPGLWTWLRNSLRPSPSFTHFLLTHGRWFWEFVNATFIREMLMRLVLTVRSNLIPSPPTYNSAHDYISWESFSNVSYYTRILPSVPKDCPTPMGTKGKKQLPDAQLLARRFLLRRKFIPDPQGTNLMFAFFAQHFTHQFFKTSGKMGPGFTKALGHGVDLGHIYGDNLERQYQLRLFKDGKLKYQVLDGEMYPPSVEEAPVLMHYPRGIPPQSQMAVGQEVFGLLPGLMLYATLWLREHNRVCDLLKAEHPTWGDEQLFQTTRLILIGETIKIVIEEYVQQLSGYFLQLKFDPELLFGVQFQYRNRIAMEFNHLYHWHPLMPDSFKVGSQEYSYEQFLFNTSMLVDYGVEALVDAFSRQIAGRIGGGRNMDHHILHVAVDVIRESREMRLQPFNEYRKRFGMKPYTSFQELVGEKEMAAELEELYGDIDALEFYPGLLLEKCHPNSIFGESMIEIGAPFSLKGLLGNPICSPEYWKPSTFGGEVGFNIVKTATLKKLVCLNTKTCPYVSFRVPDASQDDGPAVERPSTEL

[3] = target: T1, cyclooxygenase-2 (Homo sapiens, UniProt P35354); experiment: cell-based; conditions: human osteosarcoma 143 cells; PGE2 synthesis; 10 μM arachidonic acid; read-out: COX-2 (IC50)
T1 sequence (P35354 18-604): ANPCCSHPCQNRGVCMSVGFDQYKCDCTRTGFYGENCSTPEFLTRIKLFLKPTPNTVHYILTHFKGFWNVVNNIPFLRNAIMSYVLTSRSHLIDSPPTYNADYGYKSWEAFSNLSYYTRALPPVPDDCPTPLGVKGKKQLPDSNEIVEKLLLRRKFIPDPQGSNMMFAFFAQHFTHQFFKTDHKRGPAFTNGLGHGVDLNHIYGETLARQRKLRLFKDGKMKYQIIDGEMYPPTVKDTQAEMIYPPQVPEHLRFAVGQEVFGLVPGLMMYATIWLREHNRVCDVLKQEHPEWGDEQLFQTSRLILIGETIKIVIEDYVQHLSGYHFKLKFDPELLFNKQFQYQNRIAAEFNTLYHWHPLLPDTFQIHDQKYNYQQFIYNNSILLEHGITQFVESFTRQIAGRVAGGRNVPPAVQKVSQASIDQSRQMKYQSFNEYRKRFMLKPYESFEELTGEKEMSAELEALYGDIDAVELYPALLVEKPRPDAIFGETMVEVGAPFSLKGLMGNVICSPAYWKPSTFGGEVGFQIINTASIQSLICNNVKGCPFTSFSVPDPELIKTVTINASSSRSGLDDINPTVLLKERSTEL
Experimental: Compounds were tested as inhibitors of cyclooxygenase activity in whole cell cyclooxygenase assays. Both of these assays measured prostaglandin E2 synthesis in response to arachidonic acid, using a radioimmunoassay. Cells used for these assays were human osteosarcoma 143 cells (which specifically express cyclooxygenase-2) and human U-937 cells (which specifically express cyclooxygenase-1 ). In these assays, 100% activity is defined as the difference between prostaglandin E2 synthesis in the absence and presence of arachidonate.
For cyclooxygenase assays, osteosarcoma cells are cultured in 1 mL of media in 24-well multidishes (Nunclon) until confluent (1-2×10^5 cells/well). U-937 cells are grown in spinner flasks and resuspended to a final density of 1.5×10^6 cells/mL in 24-well multidishes (Nunclon). Following washing and resuspension of osteosarcoma and U-937 cells in 1 mL of Hanks balanced salts solution (HBSS), 2 μL of a DMSO solution of test compound or DMSO vehicle is added, and samples gently mixed. All assays are performed in triplicate. Samples and then incubated for 5 or 15 minutes at 37° C., prior to the addition of arachidonic acid. Arachidonic acid (peroxide-free, Cayman Chemical) is prepared as a 10mM stock solution in ethanol and further diluted 10-fold in HBSS. An aliquot of 10 μL of this diluted solution is added to the cells to give a final arachidonic acid concentration of 10 μM. Control samples are incubated with ethanol vehicle instead of arachidonic acid. Samples are again gently mixed and incubated for a further 10 min. at 37° C. For osteosarcoma cells, reactions are then stopped by the addition of 100 μL of 1 N HCl with mixing and by the rapid removal of the solution from cell monolayers. For U-937 cells, reactions are stopped by the addition of 100 μL of 1N HCl, with mixing. Samples are then neutralized by the addition of 100 μL of 1N NaOH and PGE2 levels measured by radioimmunoassay.
In the assay, inhibition is determined by measuring the amount of prostaglandin E2 (PGE2) synthesized in the presence of arachidonic acid, cyclooxygenase-1 or cyclooxygenase-2 and a putative inhibitor. The IC50 values represent the concentration of putative inhibitor required to return PGE2 synthesis to 50% of that obtained as compared to the uninhibited control.

SMILES | IC50 [2] [nM] | IC50 [3] [nM] | Rat paw edema (ED30) [1] [mg/kg]
Cc1c(C(C)C(=O)[O-])c2cc(Br)ccc2n1Cc1ccc(Br)cc1.[Na+] (racemic) |  |  | 0.26
Cc1c(C(C)C(=O)[O-])c2cc(Br)ccc2n1Cc1ccc(Br)cc1.[Na+] (racemic) [sodium salt] | 10000 | 1.9 | 
COc1ccc2c(c1)c(C(C)C(=O)O)c(C)n2Cc1ccc(Cl)cc1 (stereo not drawn) [MK-555, α-(1-p-chlorobenzyl-2-methyl-5-methoxy-3-indolyl)propionic acid, reference compound] | 10000 | 10 | 3

Second part, led by results:

IC50 [2] [nM] | IC50 [3] [nM] | SMILES | Rat paw edema (ED30) [1] [mg/kg]
1100 | 13 | Cc1c([C@H](C)C(=O)O)c2cc(Br)ccc2n1Cc1ccc(Br)cc1 [Example 2, sodium salt] | 0.28
32000 | 1 | Cc1c([C@@H](C)C(=O)O)c2cc(Br)ccc2n1Cc1ccc(Br)cc1 [Example 3, (R)-(-)-2-(5-Bromo-1-(4-bromobenzyl)-2-methyl-1H-indol-3-yl)propionic acid, sodium salt] | 0.57
